Common to all, as to assay type: cell-based
One experiment concerns B. fragilis 6688. As to the kind of experiment: MIC determination, broth microdilution (CLSI). To be noted: Bacteroides fragilis, 6688, strain 15; broth microdilution; read-out: MIC strain 15 (B. fragilis 6688). (In general: Broth dilution looks for growth in wells or tubes with falling amounts of substance.)
For the next experiment, the system named is C. perfringens DSM756. As to the kind of experiment: microbe, parasite or virus in culture. The conditions noted are these: Clostridium perfringens, DSM756, read-out: MIC strain 16 (C. perfringens DSM756), strain 16; broth microdilution.
A further experiment has as its system K. pneumoniae 60. As to the kind of experiment: MIC determination, broth microdilution (CLSI). The conditions noted are these: Klebsiella pneumoniae, 60, strain 2.
Another experiment relates to S. pneumoniae 113. As to the kind of experiment: MIC determination, broth microdilution (CLSI). To be noted: Streptococcus pneumoniae, 113, strain 13; broth microdilution; read-out: MIC strain 13 (S. pneumoniae 113).
The subject of a further experiment is Bacteria. As to the kind of experiment: MIC determination in combination with β-lactamase inhibitors (constant 4 μg/mL).
The next experiment relates to E. cloacae 34654. As to the kind of experiment: MIC determination, broth microdilution (CLSI). To be noted: Enterobacter cloacae, 34654, strain 3.
A further experiment concerns S. aureus 133. As to the kind of experiment: MIC determination, broth microdilution (CLSI).
A further experiment concerns P. aeruginosa PAO1. As to the kind of experiment: MIC determination, broth microdilution (CLSI). The conditions noted are these: Pseudomonas aeruginosa, PAO1, strain 6.
In another experiment the test system is E. coli J62-TEM-3. Briefly: MIC determination, broth microdilution (CLSI). The conditions noted are these: Escherichia coli, J62TEM3, read-out: MIC strain 18 (E. coli J62-TEM-3), strain 18; broth microdilution.
The next experiment relates to H. influenzae ATCC 49247. As to the kind of experiment: MIC determination, broth microdilution (CLSI). The conditions noted are these: Haemophilus influenzae, ATCC49247, strain 12; broth microdilution; read-out: MIC strain 12 (H. influenzae ATCC 49247).
In a further experiment the test system is E. coli ATCC25922. As to the kind of experiment: MIC determination, broth microdilution (CLSI). To be noted: Escherichia coli, ATCC25922, strain 1.
Another experiment deals with C. freundii K21/3034. Briefly: MIC determination, broth microdilution (CLSI). The conditions noted are these: Citrobacter freundii, K21/3034, strain 4.
For another experiment, the system named is E. coli J62. As to the kind of experiment: MIC determination, broth microdilution (CLSI). The conditions noted are these: Escherichia coli, J62, strain 17; broth microdilution; read-out: MIC strain 17 (E. coli J62).
Experiment [1] relates to P. aeruginosa 2297 (AmpC wt). As to the kind of experiment: MIC determination, broth microdilution (CLSI). The conditions noted are these: Pseudomonas aeruginosa, strain 7.
The subject of a further experiment is M. morganii 126/3048. As to the kind of experiment: MIC determination, broth microdilution (CLSI). To be noted: Morganella morganii, 126/3048, strain 5.
In experiment [2] the test system is P. aeruginosa 2297-con (AmpC derepressed). Briefly: MIC determination, broth microdilution (CLSI). The conditions noted are these: Pseudomonas aeruginosa, read-out: strain 8 MIC, strain 8.
Another experiment relates to A. baumannii ATCC15308. Briefly: MIC determination, broth microdilution (CLSI). The conditions noted are these: Acinetobacter baumannii, ATCC15308, strain 9.
For another experiment, the system named is S. maltophilia ICB7569. As to the kind of experiment: MIC determination, broth microdilution (CLSI). To be noted: Stenotrophomonas maltophilia, ICB7569, strain 10.
The mark [3] stands for this setting: Staphylococcus aureus, 133, strain 11, read-out: strain 11 MIC.

Converted amounts (≈) assume the structure as drawn. Where two headings read alike, the source gives them in different places. Bounds are passed on as bounds.

Consider `CC1(C)[C@H](NC(=O)/C(=N\O[C@@H](COc2ccc(C(=N)NCC3CCCCN3)cc2)C(=O)O)c2csc(N)n2)C(=O)N1OS(=O)(=O)O` (stereo partly drawn) [Example 99, (2S)-2-({[(1Z)-1-(2-Amino-1,3-thiazol-4-yl)-2-{[(3S)-2,2-dimethyl-4-oxo-1-(sulfooxy)-azetidin-3-yl]amino}-2-oxoethylidene]amino}oxy)-3-{4-[N-(piperidin-2-ylmethyl)carbamimidoyl]phenoxy}propanoic acid], for which the MIC was 8 mg/L (≈ 11.7 µM) with B. fragilis 6688; 0.5 mg/L (≈ 0.732 µM) in the experiment on C. perfringens DSM756; 0.25 mg/L (≈ 0.366 µM) in the experiment on K. pneumoniae 60; 0.5 mg/L (≈ 0.732 µM) with S. pneumoniae 113; 0.25 mg/L (≈ 0.366 µM) against E. cloacae 34654; no more than 0.063 mg/L in the experiment with S. aureus 133 (setting [3]). Moreover, the MIC with S. aureus 133 (Staphylococcus aureus, 133, strain 14, broth microdilution, read-out: MIC strain 14 (S. aureus 133)) is 32 mg/L (≈ 46.9 µM); against P. aeruginosa PAO1, 2 mg/L (≈ 2.93 µM); in the experiment with E. coli J62-TEM-3, 4 mg/L (≈ 5.86 µM); in the experiment with H. influenzae ATCC 49247, no more than 0.063 mg/L; in the experiment on E. coli ATCC25922, 0.125 mg/L (≈ 0.183 µM); with C. freundii K21/3034, 0.125 mg/L (≈ 0.183 µM). For the same compound, the MIC in the experiment with E. coli J62 was 0.25 mg/L (≈ 0.366 µM); in experiment [1] it was 2 mg/L (≈ 2.93 µM); with M. morganii 126/3048 it was no more than 0.063 mg/L; in experiment [2], 2 mg/L (≈ 2.93 µM); in the experiment on A. baumannii ATCC15308, 2 mg/L (≈ 2.93 µM); against S. maltophilia ICB7569, 4 mg/L (≈ 5.86 µM). Moreover, in the experiment on Bacteria, the “MIC strain 19 (E. coli J62-TEM-3 + 4 μg/mL clavulanic acid)” value is 0.125 mg/L. The “MIC strain 20 (E. coli J62-TEM-3 + 4 μg/mL sulbactam)” value in the experiment with Bacteria amounted to 0.125 mg/L. The “MIC strain 21 (E. coli J62-TEM-3 + 4 μg/mL tazobactam)” value in the experiment with Bacteria was 0.25 mg/L.

On to `CN1CC[C@H](NC(=N)c2ccc(OC[C@H](O/N=C(\C(=O)N[C@@H]3C(=O)N(OS(=O)(=O)O)C3(C)C)c3csc(N)n3)C(=O)O)cc2)C1` [Example 101], for which the MIC in the experiment with B. fragilis 6688 is 8 mg/L (≈ 12 µM); with C. perfringens DSM756, 2 mg/L (≈ 2.99 µM); in the experiment with K. pneumoniae 60, 0.125 mg/L (≈ 0.187 µM); with S. pneumoniae 113 it was 0.5 mg/L (≈ 0.748 µM); with E. cloacae 34654 it was 0.125 mg/L (≈ 0.187 µM); in the experiment on S. aureus 133 (setting [3]), no more than 0.063 mg/L. The MIC in the experiment with P. aeruginosa PAO1 is 2 mg/L (≈ 2.99 µM); with E. coli J62-TEM-3 it was 8 mg/L (≈ 12 µM); with H. influenzae ATCC 49247, no more than 0.063 mg/L; with E. coli ATCC25922 it was 0.125 mg/L (≈ 0.187 µM); in the experiment on C. freundii K21/3034 it was 0.125 mg/L (≈ 0.187 µM); in the experiment with E. coli J62 it was 0.125 mg/L (≈ 0.187 µM). The MIC in experiment [1] is 4 mg/L (≈ 5.98 µM); in the experiment with M. morganii 126/3048 it was 0.125 mg/L (≈ 0.187 µM); in experiment [2] it was 2 mg/L (≈ 2.99 µM); against A. baumannii ATCC15308, 4 mg/L (≈ 5.98 µM); in the experiment on S. maltophilia ICB7569, 8 mg/L (≈ 12 µM). Further, the “MIC strain 19 (E. coli J62-TEM-3 + 4 μg/mL clavulanic acid)” value in the experiment with Bacteria was “≦0.063 mg/L”. The “MIC strain 20 (E. coli J62-TEM-3 + 4 μg/mL sulbactam)” value in the experiment on Bacteria was “≦0.063 mg/L”. The “MIC strain 21 (E. coli J62-TEM-3 + 4 μg/mL tazobactam)” value in the experiment with Bacteria worked out at 0.125 mg/L.

As for `CC1(C)[C@H](NC(=O)/C(=N\O[C@@H](COc2ccc(C(=N)NC(CN)CN)cc2)C(=O)O)c2csc(N)n2)C(=O)N1OS(=O)(=O)O` [Example 102, (2S)-2-({[(1Z)-1-(2-Amino-1,3-thiazol-4-yl)-2-{[(3S)-2,2-dimethyl-4-oxo-1-(sulfooxy)azetidin-3-yl]amino}-2-oxoethylidene]amino}oxy)-3-{4-[N-(1,3-diaminopropan-2-yl)carbamimidoyl]phenoxy}propanoic acid], the MIC was 8 mg/L (≈ 12.2 µM) with B. fragilis 6688; 2 mg/L (≈ 3.04 µM) in the experiment with C. perfringens DSM756; no more than 0.063 mg/L with K. pneumoniae 60; 0.5 mg/L (≈ 0.76 µM) in the experiment with S. pneumoniae 113; 0.25 mg/L (≈ 0.38 µM) against E. cloacae 34654; no more than 0.063 mg/L in the experiment with S. aureus 133 (setting [3]). Also, the MIC with P. aeruginosa PAO1 was 1 mg/L (≈ 1.52 µM); in the experiment on E. coli J62-TEM-3, 4 mg/L (≈ 6.08 µM); in the experiment with H. influenzae ATCC 49247 it was no more than 0.063 mg/L; in the experiment on E. coli ATCC25922 it was 0.125 mg/L (≈ 0.19 µM); with C. freundii K21/3034 it was no more than 0.063 mg/L; with E. coli J62, 0.125 mg/L (≈ 0.19 µM). For the same compound, the MIC is 2 mg/L (≈ 3.04 µM) in experiment [1]; no more than 0.063 mg/L in the experiment on M. morganii 126/3048; 2 mg/L (≈ 3.04 µM) in experiment [2]; 4 mg/L (≈ 6.08 µM) against A. baumannii ATCC15308; 4 mg/L (≈ 6.08 µM) in the experiment on S. maltophilia ICB7569. Also, in the experiment on Bacteria, the “MIC strain 19 (E. coli J62-TEM-3 + 4 μg/mL clavulanic acid)” value was “≦0.063 mg/L”. The “MIC strain 20 (E. coli J62-TEM-3 + 4 μg/mL sulbactam)” value in the experiment with Bacteria is given as “≦0.063 mg/L”. Also, the “MIC strain 21 (E. coli J62-TEM-3 + 4 μg/mL tazobactam)” value with Bacteria is listed as 0.125 mg/L.
